Measurements as given in US6485743B1, “Method and composition of an oral preparation of itraconazole” (Choongwae Pharma Corporation, priority 1997, dated 2002).

Columns and labels:
[1] = cited from earlier work
[2] = Comparative test of solubility of the solid dispersions in polymer; type: physicochemical; details: simulated gastric fluid, thermodynamic from solid, simulated gastric juice (pH 1.2), 25° C., itraconazole:hydrophilic polymer=1:1.5 (w/w), n=3, Average ± Standard deviation
[3] = pH 8.1 aqueous buffer/n-octanol system; cited from earlier work

CCC(C)n1ncn(-c2ccc(N3CCN(c4ccc(OCC5COC(Cn6cncn6)(c6ccc(Cl)cc6Cl)O5)cc4)CC3)cc2)c1=O (mixture of isomers) [itraconazole, (±)-cis-4-[4-[4-[4-[[2-(2,4-dichlorophenyl)-2-(1H-1,2,4-triazol-1-ylmethyl)-1,3-dioxolan-4-yll]methoxy]phenyl]-1-piperazinyl]phenyl]-2,4-dihydro-2-(1-methylpropyl)-3H-1,2,4-triazol-3-one]
solubility in diluted acidic solution ([1]; diluted acidic solution): less than 5 μg/ml | solubility in water ([1]; water): less than 1 μg/ml | solubility at 24 h [2]: 1.38 ± 0.11 µg/mL | oil/water partition coefficient [3]: 5.66
